Measurements from the CheMixHub ionic liquid set.
Where “and” joins values, the source holds several entries; their conditions need not be identical. Equal values may be shown once. ± gives the uncertainty stated by the source.

Assay: xn = mol fraction of the nth substance listed
Details: 298.15 K, 101 kPa, frequency 0.001 MHz

CCCCCCCCCCCCCCCC[N+](C)(C)C.[Br-] + CCCCCCCCCCCCOS(=O)(=O)[O-].[Na+] + O
Details	electrical conductivity
x2 = 0, x1 = 3e-08	0.000332 ± 3.3e-05 S/m
x2 = 0, x1 = 1.09e-06	0.001 ± 0.0001 S/m
x2 = 0, x1 = 2.34e-06	0.00165 ± 0.00016 S/m
x2 = 0, x1 = 3.39e-06	0.00255 ± 0.00026 S/m
x2 = 0, x1 = 4.43e-06	0.00305 ± 0.0003 S/m
x2 = 0, x1 = 5.57e-06	0.00366 ± 0.00037 S/m
x2 = 0, x1 = 6.72e-06	0.00441 ± 0.00044 S/m
x2 = 0, x1 = 7.97e-06	0.00511 ± 0.00051 S/m
x2 = 0, x1 = 8.91e-06	0.00577 ± 0.00058 S/m
x2 = 0, x1 = 1.12e-05	0.00697 ± 0.0007 S/m
x2 = 0, x1 = 1.213e-05	0.00757 ± 0.00076 S/m
x2 = 0, x1 = 1.307e-05	0.00823 ± 0.00082 S/m
x2 = 0, x1 = 1.411e-05	0.00873 ± 0.00087 S/m
x2 = 0, x1 = 1.526e-05	0.00943 ± 0.00094 S/m
x2 = 0, x1 = 1.63e-05	0.00978 ± 0.00098 S/m
x2 = 0, x1 = 1.734e-05	0.0102 ± 0.001 S/m
x2 = 0, x1 = 1.922e-05	0.0105 ± 0.0011 S/m
x2 = 0, x1 = 1.995e-05	0.0108 ± 0.0011 S/m
x2 = 0, x1 = 2.172e-05	0.0111 ± 0.0011 S/m
x2 = 0, x1 = 2.276e-05	0.0113 ± 0.0011 S/m
x2 = 0, x1 = 2.443e-05	0.0115 ± 0.0012 S/m
x2 = 0, x1 = 2.599e-05	0.0117 ± 0.0012 S/m
x2 = 0, x1 = 2.734e-05	0.012 ± 0.0012 S/m
x2 = 0, x1 = 2.859e-05	0.0122 ± 0.0012 S/m
x2 = 1e-08, x1 = 1e-08	0.000339 S/m and 0.000404 S/m
x2 = 1e-08, x1 = 3e-08	0.000436 ± 4.4e-05 S/m
x2 = 1e-08, x1 = 4e-08	0.000343 ± 3.4e-05 S/m
x2 = 1e-08, x1 = 1.2e-07	0.000394 ± 3.9e-05 S/m
x2 = 2e-08, x1 = 2e-08	0.000534 ± 5.3e-05 S/m
x2 = 2e-08, x1 = 3e-08	0.000686 S/m and 0.000765 S/m
x2 = 2e-08, x1 = 4e-08	0.000522 S/m and 0.000583 S/m and 0.000801 S/m
x2 = 2e-08, x1 = 5e-08	0.000647 S/m and 0.000697 S/m
x2 = 2e-08, x1 = 7e-08	0.000383 ± 3.8e-05 S/m
x2 = 2e-08, x1 = 8e-08	0.000422 ± 4.2e-05 S/m
x2 = 2e-08, x1 = 1.5e-07	0.000412 ± 4.1e-05 S/m
x2 = 2e-08, x1 = 1.9e-07	0.000438 ± 4.4e-05 S/m
x2 = 3e-08, x1 = 1e-08	0.000594 ± 5.9e-05 S/m
x2 = 3e-08, x1 = 4e-08	0.000836 ± 8.4e-05 S/m
x2 = 3e-08, x1 = 5e-08	0.000883 ± 8.8e-05 S/m
x2 = 3e-08, x1 = 6e-08	0.000733 ± 7.3e-05 S/m
x2 = 3e-08, x1 = 7e-08	0.000772 ± 7.7e-05 S/m
x2 = 3e-08, x1 = 1.1e-07	0.000459 ± 4.6e-05 S/m
x2 = 3e-08, x1 = 2.3e-07	0.000467 ± 4.7e-05 S/m
x2 = 3e-08, x1 = 3e-07	0.000493 ± 4.9e-05 S/m
x2 = 4e-08, x1 = 2e-08	0.000416 S/m and 0.00028 S/m
x2 = 4e-08, x1 = 6e-08	0.000919 ± 9.2e-05 S/m
x2 = 4e-08, x1 = 8e-08	0.000812 ± 8.1e-05 S/m
x2 = 4e-08, x1 = 1e-07	0.000848 ± 8.5e-05 S/m
x2 = 4e-08, x1 = 1.7e-07	0.000541 ± 5.4e-05 S/m
x2 = 4e-08, x1 = 3.6e-07	0.000522 ± 5.2e-05 S/m
x2 = 5e-08, x1 = 1e-08	0.000679 ± 6.8e-05 S/m
x2 = 5e-08, x1 = 7e-08	0.000941 ± 9.4e-05 S/m
x2 = 5e-08, x1 = 1.2e-07	0.000887 ± 8.9e-05 S/m
x2 = 5e-08, x1 = 4.3e-07	0.000555 ± 5.6e-05 S/m
x2 = 6e-08, x1 = 2e-08	0.000797 ± 8e-05 S/m
x2 = 6e-08, x1 = 6e-08	0.000747 ± 7.5e-05 S/m
x2 = 6e-08, x1 = 9e-08	0.000991 ± 9.9e-05 S/m
x2 = 6e-08, x1 = 2.4e-07	0.000642 ± 6.4e-05 S/m
x2 = 7e-08, x1 = 1.1e-07	0.00101 ± 0.0001 S/m
x2 = 7e-08, x1 = 1.5e-07	0.000924 ± 9.2e-05 S/m
x2 = 7e-08, x1 = 2.9e-07	0.000707 ± 7.1e-05 S/m
x2 = 8e-08, x1 = 1e-08	0.000628 ± 6.3e-05 S/m
x2 = 8e-08, x1 = 2e-08	0.000891 ± 8.9e-05 S/m
x2 = 8e-08, x1 = 3e-08	0.00034 ± 3.4e-05 S/m
x2 = 8e-08, x1 = 5e-08	0.00106 ± 0.00011 S/m
x2 = 8e-08, x1 = 1.9e-07	0.00096 ± 9.6e-05 S/m
x2 = 8e-08, x1 = 3.2e-07	0.000765 ± 7.7e-05 S/m
x2 = 9e-08, x1 = 6e-08	0.00125 ± 0.00013 S/m
x2 = 9e-08, x1 = 1.3e-07	0.00105 ± 0.00011 S/m
x2 = 9e-08, x1 = 3.7e-07	0.000826 ± 8.3e-05 S/m
x2 = 1e-07, x1 = 6e-08	0.00139 ± 0.00014 S/m
x2 = 1e-07, x1 = 1.5e-07	0.00109 ± 0.00011 S/m
x2 = 1.1e-07, x1 = 7e-08	0.00148 ± 0.00015 S/m
x2 = 1.1e-07, x1 = 1.1e-07	0.001 ± 0.0001 S/m
x2 = 1.2e-07, x1 = 3e-08	0.00103 ± 0.0001 S/m
x2 = 1.2e-07, x1 = 5e-08	0.000383 ± 3.8e-05 S/m
x2 = 1.2e-07, x1 = 8e-08	0.00152 ± 0.00015 S/m
x2 = 1.2e-07, x1 = 1.7e-07	0.00113 ± 0.00011 S/m
x2 = 1.4e-07, x1 = 1.4e-07	0.00108 ± 0.00011 S/m
x2 = 1.4e-07, x1 = 2.1e-07	0.00116 ± 0.00012 S/m
x2 = 1.5e-07, x1 = 4e-08	0.00112 ± 0.00011 S/m
x2 = 1.5e-07, x1 = 6e-08	0.000443 ± 4.4e-05 S/m
x2 = 1.5e-07, x1 = 1e-07	0.00161 ± 0.00016 S/m
x2 = 1.6e-07, x1 = 2e-08	0.000934 ± 9.3e-05 S/m
x2 = 1.6e-07, x1 = 7e-08	0.000477 ± 4.8e-05 S/m
x2 = 1.7e-07, x1 = 1.1e-07	0.00167 ± 0.00017 S/m
x2 = 1.8e-07, x1 = 1.8e-07	0.00116 ± 0.00012 S/m
x2 = 1.8e-07, x1 = 2.7e-07	0.0012 ± 0.00012 S/m
x2 = 1.9e-07, x1 = 2e-08	0.00106 ± 0.00011 S/m
x2 = 2e-07, x1 = 9e-08	0.000571 ± 5.7e-05 S/m
x2 = 2e-07, x1 = 1.3e-07	0.00173 ± 0.00017 S/m
x2 = 2.2e-07, x1 = 5e-08	0.00121 ± 0.00012 S/m
x2 = 2.2e-07, x1 = 2.2e-07	0.00125 ± 0.00013 S/m
x2 = 2.3e-07, x1 = 3e-08	0.00115 ± 0.00012 S/m
x2 = 2.6e-07, x1 = 1.7e-07	0.00178 ± 0.00018 S/m
x2 = 2.6e-07, x1 = 2.6e-07	0.00135 ± 0.00014 S/m
x2 = 2.8e-07, x1 = 3e-08	0.00131 ± 0.00013 S/m
x2 = 3e-07, x1 = 7e-08	0.00125 ± 0.00013 S/m
x2 = 3e-07, x1 = 1.3e-07	0.000632 ± 6.3e-05 S/m
x2 = 3e-07, x1 = 2e-07	0.00186 ± 0.00019 S/m
x2 = 3e-07, x1 = 3e-07	0.00143 ± 0.00014 S/m
x2 = 3.1e-07, x1 = 3e-08	0.00138 ± 0.00014 S/m
x2 = 3.4e-07, x1 = 4e-08	0.00144 ± 0.00014 S/m
x2 = 3.4e-07, x1 = 3.4e-07	0.00147 ± 0.00015 S/m
x2 = 3.6e-07, x1 = 4e-08	0.00156 ± 0.00016 S/m
x2 = 3.7e-07, x1 = 2.4e-07	0.00196 ± 0.0002 S/m
x2 = 4e-07, x1 = 4e-08	0.00168 ± 0.00017 S/m
x2 = 4.1e-07, x1 = 1e-07	0.0013 ± 0.00013 S/m
x2 = 4.1e-07, x1 = 1.8e-07	0.000659 ± 6.6e-05 S/m
x2 = 4.1e-07, x1 = 2.7e-07	0.00203 ± 0.0002 S/m
x2 = 4.6e-07, x1 = 3.1e-07	0.00208 ± 0.00021 S/m
x2 = 4.7e-07, x1 = 5e-08	0.00179 ± 0.00018 S/m
x2 = 5.1e-07, x1 = 2.2e-07	0.000678 ± 6.8e-05 S/m
x2 = 5.1e-07, x1 = 3.4e-07	0.0022 ± 0.00022 S/m
x2 = 5.4e-07, x1 = 6e-08	0.0019 ± 0.00019 S/m
x2 = 5.6e-07, x1 = 3.7e-07	0.00228 ± 0.00023 S/m
x2 = 5.8e-07, x1 = 1.5e-07	0.00133 ± 0.00013 S/m
x2 = 6.1e-07, x1 = 7e-08	0.00201 ± 0.0002 S/m
x2 = 6.6e-07, x1 = 2.8e-07	0.000706 ± 7.1e-05 S/m
x2 = 6.7e-07, x1 = 7e-08	0.00214 ± 0.00021 S/m
x2 = 7.9e-07, x1 = 3.4e-07	0.000733 ± 7.3e-05 S/m
x2 = 8.2e-07, x1 = 2e-07	0.00138 ± 0.00014 S/m
x2 = 9e-07, x1 = 3.9e-07	0.000778 ± 7.8e-05 S/m
x2 = 1.05e-06, x1 = 2.6e-07	0.00143 ± 0.00014 S/m
